Source: patent publication US20240391862A1, “(1,4,5-TRISUBSTITUTED-1H-PYRAZOL-3-YL)OXY-2-ALKOXY ALKYL ACIDS AND THEIR DERIVATIVES, THEIR SALTS AND THEIR USE AS HERBICIDAL AGENTS” (Bayer AKtiengesellschaft, priority 2021, published 2024)

Columns and labels:
[1] = system: ZEAMX; experiment: Pre-emergence herbicidal effect and crop plant compatibility, greenhouse pot test; type: in vivo, Zea mays; conditions: 80 g/ha, scored visually after about 3 weeks vs untreated controls
Procedure, shortened: (§1)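 Weed and crop seeds sown in pots and covered with soil, then WP or EC formulations sprayed on the soil surface as aqueous suspension/emulsion with 0.5% additive at 600 l/ha water, 20 to 320 g/ha. Greenhouse growth; visual % effect versus untreated controls after about 3 weeks (100% = plants dead).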

[2] = system: ALOMY; experiment: Pre-emergence herbicidal effect, greenhouse pot test; type: in vivo, Alopecurus myosuroides; conditions: scored visually after about 3 weeks vs untreated controls
Procedure, shortened: as §1

[3] = system: AMARE; experiment: as above; type: in vivo, Amaranthus retroflexus; conditions: scored visually after about 3 weeks vs untreated controls; for pest or weed control at 320 g/ha: Amaranthus retroflexus, 504 h, read-out: Pre-emergence effect at 320 g/ha against AMARE in %
Procedure, shortened: as §1

[4] = system: ECHCG; experiment: as above; type: in vivo, Echinochloa crus-galli; conditions: scored visually after about 3 weeks vs untreated controls; for pest or weed control at 320 g/ha: Echinochloa crus-galli, 504 h, read-out: Pre-emergence effect at 320 g/ha against ECHCG in %
Procedure, shortened: as §1

[5] = system: LOLRI; experiment: as above; type: in vivo, Lolium rigidum; conditions: scored visually after about 3 weeks vs untreated controls
Procedure, shortened: as §1

[6] = system: MATIN; experiment: as above; type: in vivo, Tripleurospermum inodorum; conditions: scored visually after about 3 weeks vs untreated controls; for pest or weed control at 320 g/ha: Tripleurospermum inodorum, 504 h, read-out: Pre-emergence effect at 320 g/ha against MATIN in %
Procedure, shortened: as §1

[7] = system: POLCO; experiment: as above; type: in vivo, Fallopia convolvulus; conditions: scored visually after about 3 weeks vs untreated controls; for pest or weed control at 320 g/ha: Fallopia convolvulus, 504 h, read-out: Pre-emergence effect at 320 g/ha against POLCO in %
Procedure, shortened: as §1

[8] = system: SETVI; experiment: as above; type: in vivo, Setaria viridis; conditions: scored visually after about 3 weeks vs untreated controls; for pest or weed control at 320 g/ha: Setaria viridis, 504 h, read-out: Pre-emergence effect at 320 g/ha against SETVI in %
Procedure, shortened: as §1

[9] = system: ALOMY; experiment: Post-emergence herbicidal effect, greenhouse pot test; type: in vivo, Alopecurus myosuroides; conditions: Alopecurus myosuroides, 504 h, visual rating about 3 weeks after treatment, read-out: Post-emergence effect against ALOMY
Procedure, shortened: (§2)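 Greenhouse pot test: weeds and crops sown in sandy loam, sprayed post-emergence at one-leaf stage (2–3 weeks after sowing) with WP or EC formulations plus 0.5% additive at 600 l/ha water, rates 20–320 g/ha. Visual rating about 3 weeks later versus untreated controls (100% = dead, 0% = as control).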

[10] = system: AMARE; experiment: as above; type: in vivo, Amaranthus retroflexus; conditions: Amaranthus retroflexus, 504 h, visual rating about 3 weeks after treatment, read-out: Post-emergence effect against AMARE
Procedure, shortened: as §2

[11] = system: AVEFA; experiment: as above; type: in vivo, Avena fatua; conditions: Avena fatua, 504 h, visual rating about 3 weeks after treatment, read-out: Post-emergence effect against AVEFA
Procedure, shortened: as §2

[12] = system: ECHCG; experiment: as above; type: in vivo, Echinochloa crus-galli; conditions: Echinochloa crus-galli, 504 h, read-out: Post-emergence effect against ECHCG in %
Procedure, shortened: as §2

[13] = system: LOLRI; experiment: as above; type: in vivo, Lolium rigidum; conditions: Lolium rigidum, 504 h, read-out: Post-emergence effect against LOLRI in %
Procedure, shortened: as §2

[14] = system: MATIN; experiment: as above; type: in vivo, Tripleurospermum inodorum; conditions: Tripleurospermum inodorum, 504 h, read-out: Post-emergence effect against MATIN in %
Procedure, shortened: as §2

[15] = system: PHBPU; experiment: as above; type: in vivo, Ipomoea purpurea; conditions: Ipomoea purpurea, 504 h, read-out: Post-emergence effect against PHBPU in %
Procedure, shortened: as §2

[16] = system: SETVI; experiment: as above; type: in vivo, Setaria viridis; conditions: Setaria viridis, 504 h, read-out: Post-emergence effect against SETVI in %
Procedure, shortened: as §2

[17] = system: VERPE; experiment: as above; type: in vivo, Veronica persica; conditions: Veronica persica, 504 h, read-out: Post-emergence effect against VERPE in %
Procedure, shortened: as §2

[18] = system: VIOTR; experiment: as above; type: in vivo, Viola tricolor; conditions: Viola tricolor, 504 h, read-out: Post-emergence effect against VIOTR in %
Procedure, shortened: as §2

[19] = system: PHBPU; experiment: Pre-emergence herbicidal effect, greenhouse pot test; type: in vivo, Ipomoea purpurea; conditions: scored visually after about 3 weeks vs untreated controls
Procedure, shortened: as §1

| SMILES | Pre-emergence effect at 80 g/ha against ZEAMX in % [1] [%] | Pre-emergence effect at 320 g/ha against ALOMY in % [2] [%] | pest or weed control at 320 g/ha [3] [%] | pest or weed control at 320 g/ha [4] [%] | Pre-emergence effect at 320 g/ha against LOLRI in % [5] [%] | pest or weed control at 320 g/ha [6] [%] | pest or weed control at 320 g/ha [7] [%] | pest or weed control at 320 g/ha [8] [%] | pest or weed control at 80 g/ha [9] [%] | pest or weed control at 320 g/ha [9] [%] | pest or weed control at 320 g/ha [10] [%] | pest or weed control at 320 g/ha [11] [%] | pest or weed control at 320 g/ha [12] [%] | pest or weed control at 320 g/ha [13] [%] | pest or weed control at 320 g/ha [14] [%] | pest or weed control at 320 g/ha [15] [%] | pest or weed control at 80 g/ha [16] [%] | pest or weed control at 320 g/ha [16] [%] | pest or weed control at 320 g/ha [17] [%] | pest or weed control at 320 g/ha [18] [%] | other results |
| --- | --- | --- | --- | --- | --- | --- | --- | --- | --- | --- | --- | --- | --- | --- | --- | --- | --- | --- | --- | --- | --- |
| CCOC(=O)C(OCC)Oc1nn(-c2ccccc2F)c(-c2ccc(F)nc2)c1Br (racemic) [Example I-01, Ethyl (2RS)-{[4-bromo-1-(2-fluorophenyl)-5-(6-fluoropyridin-3-yl)-1H-pyrazol-3-yl]oxy}(ethoxy)acetate] | 0 | 90 | 100 | 100 | 100 | 90 | 90 | 100 | 90 | 100 | 90 | 90 | 90 | 90 | 90 | 90 | 90 | 90 | 90 | 90 | Pre-emergence effect at 80 g/ha against AMARE in % [3]: 80%; Pre-emergence effect at 80 g/ha against LOLRI in % ([5]; 80 g/ha): 90%; Pre-emergence effect at 80 g/ha against MATIN in % ([6]; 80 g/ha): 90%; Pre-emergence effect at 80 g/ha against POLCO in % [7]: 80%; pest or weed control at 80 g/ha ([10]; 80 g/ha): 80%; pest or weed control at 80 g/ha [12]: 90%; pest or weed control at 80 g/ha [14]: 80%; pest or weed control at 80 g/ha [15]: 90%; pest or weed control at 80 g/ha [17]: 80%; pest or weed control at 80 g/ha [18]: 80% |
| COC(=O)C(OC)Oc1nn(-c2ccccc2F)c(-c2ccc(F)nc2)c1Br (racemic) [Example I-04, Methyl (2RS)-{[4-bromo-1-(2-fluorophenyl)-5-(6-fluoropyridin-3-yl)-1H-pyrazol-3-yl]oxy}(methoxy)acetate] | 0 | 90 | 100 | 100 | 100 | 90 | 90 | 100 | 90 | 90 | 90 | 90 | 80 | 80 | 80 | 80 | 80 | 80 | 90 | 80 | Pre-emergence effect at 80 g/ha against ALOMY in % ([2]; 80 g/ha): 80%; Pre-emergence effect at 80 g/ha against AMARE in % [3]: 80%; Pre-emergence effect at 80 g/ha against ECHCG in % ([4]; 80 g/ha): 80%; Pre-emergence effect at 80 g/ha against PHBPU in % ([19]; 80 g/ha): 80%; Pre-emergence effect at 320 g/ha against PHBPU in % [19]: 90%; Pre-emergence effect at 80 g/ha against POLCO in % [7]: 80%; Pre-emergence effect at 80 g/ha against SETVI in % ([8]; 80 g/ha): 80%; pest or weed control at 80 g/ha [11]: 80%; pest or weed control at 80 g/ha [12]: 80%; pest or weed control at 80 g/ha [13]: 80%; pest or weed control at 80 g/ha [14]: 80%; pest or weed control at 80 g/ha [15]: 80%; pest or weed control at 80 g/ha [17]: 90%; pest or weed control at 80 g/ha [18]: 80% |
| COC(=O)C(OC)Oc1nn(-c2ncccc2F)c(-c2ccc(F)nc2)c1Br (stereo not drawn) [Example I-05] | 20 | 90 | 90 | 90 | 100 | 90 | 90 | 100 | 90 | 90 | 80 | 80 | 80 | 90 | 80 | 90 | 80 | 80 | 80 | 80 | Pre-emergence effect at 320 g/ha against PHBPU in % [19]: 80%; pest or weed control at 80 g/ha [11]: 80%; pest or weed control at 80 g/ha [13]: 80% |
